# According to patent US10704024B2, “Method for producing mesenchymal cells with promoted c-MPL receptor expression on cell surface” (AdipoSeeds, Inc., priority 2015, dated 2020):
# Experiments:
# [1] = tested on: cell population of preadipocytes (TPO+); experiment: Differentiation induction of preadipocytes into megakaryocytes/platelets in MKLI medium; CD41 positive cells by flow cytometry; type: cell-based, human
# Description: In order to check whether “cell population of preadipocytes (TPO+)” obtained in Example 1 can be actually used for efficient production of megakaryocytes/platelets (megakaryocyte and/or platelet), differentiation of preadipocytes into megakaryocyte/platelets was induced in accordance with the method described in Patent Document 1.
# A culture dish was coated with collagen and then a culture medium was added to the dish. As the culture medium, MKLI medium (megakaryocyte lineage induction medium) known as a medium which can induce differentiation of hematopoietic stem cells into megakaryocytes/platelets, was used. […]
# The “cell population of preadipocytes (TPO+)” obtained in Example 1 was cultured in MKLI medium as mentioned above at 37° C. and in the conditions of a CO2 concentration of 5% for 7 days. After culture, the cell population was separately taken and the ratio (%) of CD41 (specific marker of megakaryocytes or platelets) positive cells in the cell population was determined. […]
# In contrast, the ratio of CD41 positive cells in the “cell population of preadipocytes (TPO−)” obtained in Example 1 was determined by flow cytometry. […]
# [2] = tested on: Human primary culture preadipocytes (HPAd); experiment: Culture of preadipocytes in basic medium with TPO; c-MPL receptor positive cells by flow cytometry and immunostaining; type: cell-based
# Description: In order to check whether expression of a c-MPL receptor on a cell surface of a mesenchymal cell is promoted or not, the following culture experiment was carried out by culturing mesenchymal cells in a mesenchymal cell culturing basic medium comprising a c-MPL receptor active substance. Note that, in the culture experiment, preadipocytes were used as the mesenchymal cells.
# Human primary culture preadipocytes (Human Preadipocytes: HPAd) manufactured by CELL APPLICATIONS were prepared. A culture dish was coated with collagen and then a culture medium was added to the dish. As the culture medium, DMEM medium (Dulbecco's Modified Eagle's Medium, manufactured by Life Technology Co.), to which a 10% fetal bovine serum (manufactured by Sigma), a 1% non-essential amino acid(s) (manufactured by Life Technology Co.), a 100 U/mL penicillin-streptomycin solution (manufactured by Life Technology Co.) and 50 ng/mL recombinant human TPO (manufactured by R&D Systems) were added, was used. The preadipocytes were cultured in the culture medium at 37° C. for 3 days. […] The preadipocytes (hereinafter referred to as “the cell population of preadipocytes (TPO+)”) were labeled with a fluorescence-labeled anti c-MPL antibody (manufactured by BD Bioscience), and fluorescence was measured by flow cytometry. When the ratio of c-MPL receptor positive cells was determined in this manner, the ratio was 3.68±0.39%. Note that, the cell population of preadipocytes (TPO+) was immuno-stained with a “fluorescence-labeled anti c-MPL antibody” and “DAPI (4′,6-diamidino-2-phenylindole)”. In the right panel, cells emitting fluorescence derived from the fluorescence-labeled anti c-MPL antibody are observed around the circular fluorescence emitted from nuclei stained with DAPI.
# In contrast, the preadipocytes (hereinafter referred to as “cell population of preadipocytes (TPO−)”) were cultured in the same method except that recombinant human TPO was not added to a culture medium. When the ratio of the c-MPL receptor positive cells was determined by flow cytometry, the ratio was 0.67±0.12%. […]
# CMK cells [3] = conditions: cited from earlier work
# CMK cells [4] = conditions: luciferase gene ligated downstream of the promoter; cited from earlier work
substance,measurement,setting,value
thrombopoietin [TPO],number of megakaryocytes/platelets produced relative to preadipocytes cultured in medium not comprising recombinant TPO,[1]; TPO+ vs TPO− preadipocytes,about 1.7 times
same,ratio of CD41 positive cells in the cell population,"[1]; preadipocytes pre-cultured with TPO, then MKLI medium 37° C., 5% CO2, 7 days, FITC-labeled anti CD41 antibody, flow cytometry",28.5±2.1%
same,ratio of c-MPL receptor positive cells,"[2]; 50 ng/mL recombinant human TPO, 37° C., 3 days, fluorescence-labeled anti c-MPL antibody, flow cytometry",3.68±0.39%
same,increase of the ratio of c-MPL receptor positive cells relative to the case where TPO is not added,[2]; TPO added to culture medium vs not added,about 5.5 time
same,"c-MPL receptor positive cells by immunostaining (FIG. 1, right panel)","[2]; TPO added, 3 days, fluorescence-labeled anti c-MPL antibody and DAPI","a large number of the cells, i.e., c-MPL receptor positive cells are present"
same,expression of a c-MPL receptor on the surface of CMK cells,CMK cells [3],reduces expression
same,activity of the promotor of a c-MPL receptor gene,CMK cells [4],induced
